Laboratory results: paper PMC4556614 (PLoS ONE, 2015)
Read-outs that look alike come from different tables or passages of the source.

Assays:
[1] = biological target: T1, OCT2 (Homo sapiens, UniProt O15244); assay: Inhibition of OCT2-mediated [3H]MPP+ uptake in HEK-OCT2 cells
Description: (§1) For the transport assays HEK cell lines stably transfected with human OCT2 (HEK-OCT2) or the vector only (HEK-VC) were used. The HEK-OCT2 cell line was established and characterized previously. HEK-OCT2 and HEK-VC cells were seeded in poly-D-lysine (Sigma Aldrich, Taufkirchen, Germany) coated 48-well-plates at a density of 1.2 x 10^5 cells/well. […] Uptake was stopped by washing the cells three times with ice-cold uptake buffer. Afterwards, cells were lysed with 5 mM Tris buffer (pH 7.3) containing 0.1% Triton X-100. The intracellular accumulation of radioactivity was determined by liquid scintillation counting (PerkinElmer, Rodgau-Jügesheim, Germany) and protein concentration of each lysate was measured with bicinchonic acid assay (BCA Protein Assay Kit, Thermo Fisher Scientific, Waltham, MA, USA). We performed two to eight experiments each on at least two separate days, i.e., n = 4–16.

[2] = biological target: T1, OCT2; assay: in vitro
Description: as §1
Experimental half-maximal inhibitory concentrations (IC50 values) were measured as the substrate uptake in the presence of increasing concentrations of test drugs. These experiments were performed as described above (three experiments each on two separate days, i.e., n = 6). IC50 values were calculated with GraphPad Prism 5.0 (GraphPad Software, San Diego, CA, USA). IC50 was estimated by a sigmoidal inhibition model and was fit to the equation V = V 0 / (1 + (I / IC50 ) ^n ) by nonlinear regression. V is the net uptake in the presence of the inhibitor, V 0 is the net uptake in the absence of the inhibitor, I is the concentration of the inhibitor and n is the slope.

[3] = test drug 20 µM, MPP+ 50 μM, 3 min, net uptake HEK-OCT2 minus HEK-VC
[4] = test drug 200 µM, MPP+ 50 μM, 3 min, net uptake HEK-OCT2 minus HEK-VC
[5] = human, pH 7.3, probe [3H]MPP+, 50 µM
[6] = human, pH 7.3, probe [14C]metformin, 1000 µM, % Inhibition of OCT2-dependent MF uptake at 20 µM (mean ± SEM), test drug 20 µM, metformin 1000 μM, 3 min, net uptake HEK-OCT2 minus HEK-VC
[7] = human, pH 7.3, probe [14C]metformin, 1000 µM, % Inhibition of OCT2-dependent MF uptake at 200 µM (mean ± SEM), test drug 200 µM, metformin 1000 μM, 3 min, net uptake HEK-OCT2 minus HEK-VC

T1 sequence (O15244 whole entry): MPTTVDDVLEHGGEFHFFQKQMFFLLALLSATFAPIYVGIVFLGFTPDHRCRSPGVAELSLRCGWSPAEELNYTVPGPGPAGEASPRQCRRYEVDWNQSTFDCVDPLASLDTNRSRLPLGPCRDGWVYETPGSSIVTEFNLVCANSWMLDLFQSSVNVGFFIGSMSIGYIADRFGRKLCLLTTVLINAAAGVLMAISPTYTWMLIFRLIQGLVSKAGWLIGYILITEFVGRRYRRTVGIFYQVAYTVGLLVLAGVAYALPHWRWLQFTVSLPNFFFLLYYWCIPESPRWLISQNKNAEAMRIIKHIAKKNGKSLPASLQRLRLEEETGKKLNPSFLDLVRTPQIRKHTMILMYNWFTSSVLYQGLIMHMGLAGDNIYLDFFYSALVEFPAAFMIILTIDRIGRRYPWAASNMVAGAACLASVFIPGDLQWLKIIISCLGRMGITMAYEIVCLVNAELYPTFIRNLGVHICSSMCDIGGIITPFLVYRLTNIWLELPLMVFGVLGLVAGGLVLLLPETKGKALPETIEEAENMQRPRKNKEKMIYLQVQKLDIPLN

SMILES | % Inhibition of OCT2-dependent MPP+ uptake at 20 µM (mean ± SEM) [1, 3] | % Inhibition of OCT2-dependent MPP+ uptake at 200 µM (mean ± SEM) [1, 4] | % Inhibition of OCT2-dependent MF uptake at 20 µM (mean ± SEM) ([2]; human, pH 7.3) | % Inhibition of OCT2-dependent MF uptake at 200 µM (mean ± SEM) ([2]; human, pH 7.3) | also measured
CCCCC1=NC2(CCCC2)C(=O)N1Cc1ccc(-c2ccccc2-c2nnn[nH]2)cc1 [Irbesartan] | -18.9 ± 12.4% | -50.7 ± 14.1% | -16.2 ± 14.4 | -14.2 ± 17.8 | –
O=[N+]([O-])O[C@H]1CO[C@H]2[C@@H]1OC[C@H]2O[N+](=O)[O-] [Isosorbide dinitrate] | – | – | – | – | inhibition at 3 min, 20 µM ([1]; human, pH 7.3): -20.4 ± 5%; inhibition at 3 min, 200 µM ([1]; human, pH 7.3): -82.4 ± 8%; inhibition at 3 min, 20 µM ([2]; human, pH 7.3): -19.5 ± 6.9%; inhibition at 3 min, 200 µM ([2]; human, pH 7.3): 21.7 ± 4.4%
COC(=O)C1=C(C)NC(C)=C(C(=O)OC(C)(C)CN(C)CCC(c2ccccc2)c2ccccc2)C1c1cccc([N+](=O)[O-])c1 (stereo not shown) [Lercanidipine] | – | – | – | – | inhibition at 3 min, 20 µM [1, 5]: -13.3 ± 8.6%; inhibition at 3 min, 200 µM [1, 5]: -9.3 ± 3.6%; inhibition at 3 min, 20 µM [2, 6]: 7.8 ± 3.8%; inhibition at 3 min, 200 µM [2, 7]: -20.4 ± 11.1%
N[C@@H](Cc1ccc(O)c(O)c1)C(=O)O [Levodopa] | -24.6 ± 0.5% | 11.8 ± 1.4% | -9.3 ± 6.8 | 67.3 ± 2.6 | –
N[C@@H](Cc1cc(I)c(Oc2cc(I)c(O)c(I)c2)c(I)c1)C(=O)O [Levothyroxine] | – | – | – | – | inhibition at 3 min, 20 µM [1, 5]: 3.6 ± 4.1%; inhibition at 3 min, 200 µM [1, 5]: -3.3 ± 10.3%; inhibition at 3 min, 20 µM [2, 6]: 0.8 ± 9.6%; inhibition at 3 min, 200 µM [2, 7]: 14.3 ± 15.2%
NCCCC[C@H](N[C@@H](CCc1ccccc1)C(=O)O)C(=O)N1CCC[C@H]1C(=O)O [Lisinopril] | 16.0 ± 9.0% | 9.8 ± 11.8% | -10.3 ± 12.9 | 2.9 ± 9.0 | –
[Li] [Lithium] | -28.4 ± 7.5% | -36.7 ± 9.7% | – | – | % Inhibition of OCT2-dependent MF uptake at 20 µM (mean ± SEM) [2]: -15.2 ± 7.9; % Inhibition of OCT2-dependent MF uptake at 200 µM (mean ± SEM) [2]: -14.7 ± 6.8
O=C1Nc2ccc(Cl)cc2C(c2ccccc2Cl)=NC1O (stereo not shown) [Lorazepam] | 0.3 ± 5.1% | 17.7 ± 7.3% | 32.0 ± 2.2 | 96.5 ± 1.0 | –
CN1C(=O)C(O)N=C(c2ccccc2Cl)c2cc(Cl)ccc21 (stereo not shown) [Lormetazepam] | – | – | 77.0 ± 0.6 | 92.4 ± 0.5 | % Inhibition of OCT2-dependent MPP+ uptake at 20 µM (mean ± SEM) ([1]; human, pH 7.3): 47.8 ± 8.4; % Inhibition of OCT2-dependent MPP+ uptake at 200 µM (mean ± SEM) ([1]; human, pH 7.3): 69.8 ± 5.3
CCCCc1nc(Cl)c(CO)n1Cc1ccc(-c2ccccc2-c2nn[nH]n2)cc1 [Losartan] | -41.8 ± 8.1% | -59.5 ± 6.1% | -9.3 ± 10.4 | 7.4 ± 8.2 | –
CC1CCN(CCCC(=O)c2ccc(F)cc2)CC1 [Melperone] | 8.6 ± 10.1% | 69.7 ± 3.8% | 75.0 ± 3.4 | 94.9 ± 4.2 | –
CC12CC3CC(C)(C1)CC(N)(C3)C2 [Memantine] | 20.6 ± 8.6% | 54.0 ± 7.0% | 54.0 ± 2.1 | 93.9 ± 0.6 | –
Nc1ccc(O)c(C(=O)O)c1 [Mesalazine] | -51.3 ± 6.1% | -68.0 ± 8.5% | 21.6 ± 11.1 | 59.8 ± 6.7 | –
Cc1c(N(C)CS(=O)(=O)O)c(=O)n(-c2ccccc2)n1C [Metamizole] | -31.6 ± 6.0% | -39.1 ± 5.1% | -4.8 ± 6.4 | 8.4 ± 9.8 | –
CCC(=O)C(CC(C)N(C)C)(c1ccccc1)c1ccccc1 (stereo not shown) [Methadone] | 8.9 ± 4.4% | 68.7 ± 3.8% | – | 99.3 ± 0.3 | –
CN(Cc1cnc2nc(N)nc(N)c2n1)c1ccc(C(=O)N[C@@H](CCC(=O)O)C(=O)O)cc1 [Methotrexate] | -19.0 ± 7.2% | -9.5 ± 3.0% | -1.1 ± 11.4 | -5.8 ± 13.0 | –
COC(=O)C(c1ccccc1)C1CCCCN1 (stereo not shown) [Methylphenidate] | – | – | 17.9 ± 4.6 | 79.6 ± 2.3 | % Inhibition of OCT2-dependent MPP+ uptake at 20 µM (mean ± SEM) ([1]; human, pH 7.3): 11.5 ± 8.9; % Inhibition of OCT2-dependent MPP+ uptake at 200 µM (mean ± SEM) ([1]; human, pH 7.3): 31.6 ± 4.7
CCN(CC)CCNC(=O)c1cc(Cl)c(N)cc1OC [Metoclopramide] | 24.5 ± 2.9% | 66.6 ± 8.4% | 74.7 ± 8.5 | 93.9 ± 0.6 | –
COCCc1ccc(OCC(O)CNC(C)C)cc1 (stereo not shown) [Metoprolol] | 23.2 ± 6.5% | 27.5 ± 6.9% | 50.5 ± 5.9 | 88.2 ± 1.7 | –
CN1CCN2c3ncccc3Cc3ccccc3C2C1 (stereo not shown) [Mirtazapine] | -4.8 ± 4.0% | 57.6 ± 6.1% | 73.3 ± 3.0 | 90.7 ± 3.9 | –
O=C(NCCN1CCOCC1)c1ccc(Cl)cc1 [Moclobemide] | -38.7 ± 8.5% | -16.1 ± 17.7% | 4.3 ± 2.8 | 48.9 ± 2.1 | –
CCOC(=O)[N-]c1cn(N2CCOCC2)n[o+]1 [Molsidomine] | -1.7 ± 8.3% | 3.8 ± 4.9% | 41.4 ± 3.6 | 69.5 ± 1.7 | –
COc1nc(C)nc(Cl)c1N=C1NCCN1 [Moxonidine] | – | – | – | – | inhibition at 3 min, 20 µM [1, 5]: 16.3 ± 6.5%; inhibition at 3 min, 200 µM [1, 5]: 23.1 ± 7.1%; inhibition at 3 min, 20 µM [2, 6]: 58.1 ± 14.5%; inhibition at 3 min, 200 µM [2, 7]: 86.1 ± 2.9%
OC(CNCC(O)C1CCc2cc(F)ccc2O1)C1CCc2cc(F)ccc2O1 (stereo not shown) [Nebivolol] | -13.7 ± 13.3% | 43.2 ± 3.3% | 61.4 ± 10.4 | 75.2 ± 10.8 | –
CCOC(=O)C1=C(C)NC(C)=C(C(=O)OC)C1c1cccc([N+](=O)[O-])c1 (stereo not shown) [Nitrendipine] | 4.0 ± 6.3% | -2.4 ± 5.0% | 0.4 ± 9.8 | 53.2 ± 3.7 | –
C#C[C@]1(O)CC[C@H]2[C@@H]3CCC4=CC(=O)CC[C@@H]4[C@H]3CC[C@@]21C [Norethindrone] | -29.4 ± 6.4% | 3.0 ± 3.3% | 41.0 ± 11.0 | 87.7 ± 6.1 | –
Cc1cc2c(s1)Nc1ccccc1N=C2N1CCN(C)CC1 [Olanzapine] | 83.5 ± 9.4% | 109.7 ± 2.8% | -7.5 ± 5.7 | 74.9 ± 1.8 | % Inhibition of OCT2-dependent MPP+ uptake at 20 µM (mean ± SEM) ([1]; test drug 20 µM, MPP+ 50 μM, 3 min, net uptake HEK-OCT2 minus HEK-VC, listed as olanzapine): most potent inhibitors
CCCc1nc(C(C)(C)O)c(C(=O)O)n1Cc1ccc(-c2ccccc2-c2nnn[nH]2)cc1 [Olmesartan] | – | – | – | – | inhibition at 3 min, 20 µM [1, 5]: -23.8 ± 7.1%; inhibition at 3 min, 200 µM [1, 5]: -21.9 ± 13.3%; inhibition at 3 min, 20 µM [2, 6]: -0.1 ± 10.9%; inhibition at 3 min, 200 µM [2, 7]: 21.1 ± 7.3%
